Data on 21 compounds can be found in US11858900B2, “Fluorinated 2-amino-4-(substituted amino)phenyl carbamate derivatives” (OcuTerra Therapeutics, Inc., priority 2016, dated 2024).

Read-outs that look alike come from different tables or passages of the source.

Data set [1] deals with T1, human Kv7.2/7.3 channels (Homo sapiens, UniProt O43525+O43526).
T1 construct: expressed in transfected cells
Put plainly: Assessment of recombinantly expressed human Kv7.2/7.3 channel activation on SyncroPatch automated patch clamp platform. Conditions: for activation of Kv7.2/7.3 channels as measured by the SyncroPatch platform: FIGS. 2A-2G plots. It is filed as cell-based. The protocol:
The in vitro effects of a compound of the present application recombinantly expressed human Kv7.2/7.3 channels are assessed on Syncropatch high throughput electrophysiology platform.
Cell Preparations: CHO cells stably expressing human Kv7.2/7.3 channels were cultured in Ham's F-12 media (Hyclone, Cat #SH30022.02) supplemented with 10% Fetal Bovine Serum, 1×MEM non-essential amino acids, and 400m/ml G418 at 37° C. in 5% CO2. On the day of Syncropatch, the cells were washed once in DPBS (Hyclone, Cat #SH30028.03) for approximately 30 seconds. […] 10 ml of cold media (Ham's F-12 media (Hyclone, Cat #SH30022.02) supplemented with 10% Fetal Bovine Serum, 1×MEM non-essential amino acids, and 400m/ml G418) was added to inactivate Trypsin. The cells were then triturated until a single cell suspension was achieved, and the cell count was performed. The cells were then diluted to a concentration of 5×10^5/ml and placed into the “cell hotel” on the deck of the Syncropatch at 10° C. for about 1 hour to recover. 40 μL of the cell suspension was dispensed into each well of a 384-well Syncropatch chip by the onboard pipettor at the beginning of each Syncropatch assay.
Eight-point dose response curves were created by performing semi-log serial dilutions from 10 mM compound stock solutions in 100% DMSO. […] Final DMSO concentration in the assay was 0.3%. Final assay test concentrations were 30 μM to 0.01 μM or 1 μM to 0.0003 μM. Negative (0.3% DMSO) and positive (30 μM ML213) controls were included in each test run to assess pharmacological responsiveness.
Assessment Protocol: Electrophysiological studies of the compounds were performed using the Nanion SyncroPatch automated patch clamp platform.
Kv7 channels were evaluated using a voltage protocol in which cells were voltage-clamped at a holding potential of −110 mV. Potassium currents were activated with a series of voltage steps from −110 mV to +50 mV in 10 mV intervals with 5.5 seconds between successive voltage steps. Each voltage step was 3 seconds in duration and immediately followed by a 1 second voltage step to −120 mV to generate an inward “tail” current to allow construction of activation (G-V) curves by plotting normalized peak tail current versus the potential of the activating voltage step.
Data Analysis: Data was collected on the Syncropatch platform using PatchControl software (Nanion) and processed and analyzed using DataControl Software (Nanion). Normalized percent activation was calculated and activation curves were fit with a Boltzmann function to determine the midpoint voltage of activation (G-V midpoint) for both pre-compound and post-compound conditions for each of the 384-wells of a sealchip with Pipeline Pilot (Accelrys). The difference in G-V midpoint between pre-compound and post-compound conditions (A V0.5) was plotted as a function of concentration and concentration-response curves were fit with a three-parameter logistic equation {Y=Bottom+(Top−Bottom)/(1+10^(Log EC50−X))} for determination of the EC50 (Graphpad Prism).

For data set [2] the following is noted: in vivo; cited from earlier work.
Where [3] appears, read: concentration-dependent shift in G-V midpoint of activation, CHO cells stably expressing human Kv7.2/7.3, SyncroPatch, read-out: EC50 (95% CI).

T1 sequence (O43525 whole entry): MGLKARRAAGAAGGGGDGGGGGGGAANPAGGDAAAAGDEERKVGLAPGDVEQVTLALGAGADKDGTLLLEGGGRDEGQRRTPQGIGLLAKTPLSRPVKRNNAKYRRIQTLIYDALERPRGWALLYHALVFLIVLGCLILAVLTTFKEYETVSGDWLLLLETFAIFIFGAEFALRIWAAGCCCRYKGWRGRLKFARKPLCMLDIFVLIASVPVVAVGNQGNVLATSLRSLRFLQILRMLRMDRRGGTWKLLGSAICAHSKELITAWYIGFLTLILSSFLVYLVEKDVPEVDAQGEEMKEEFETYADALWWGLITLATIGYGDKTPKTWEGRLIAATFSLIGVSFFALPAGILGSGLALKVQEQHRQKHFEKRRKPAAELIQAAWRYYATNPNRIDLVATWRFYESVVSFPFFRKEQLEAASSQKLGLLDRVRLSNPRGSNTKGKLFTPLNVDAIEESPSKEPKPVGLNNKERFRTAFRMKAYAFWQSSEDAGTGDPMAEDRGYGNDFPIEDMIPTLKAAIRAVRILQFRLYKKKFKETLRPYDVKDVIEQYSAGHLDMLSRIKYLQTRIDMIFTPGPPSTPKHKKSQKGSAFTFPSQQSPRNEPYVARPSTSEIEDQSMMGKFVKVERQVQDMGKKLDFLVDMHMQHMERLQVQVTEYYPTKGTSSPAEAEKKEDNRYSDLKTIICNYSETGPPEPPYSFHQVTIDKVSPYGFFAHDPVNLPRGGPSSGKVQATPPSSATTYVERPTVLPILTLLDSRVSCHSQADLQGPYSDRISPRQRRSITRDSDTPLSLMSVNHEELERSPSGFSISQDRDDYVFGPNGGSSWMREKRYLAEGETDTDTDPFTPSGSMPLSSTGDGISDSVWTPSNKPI
T1 sequence (O43526 whole entry): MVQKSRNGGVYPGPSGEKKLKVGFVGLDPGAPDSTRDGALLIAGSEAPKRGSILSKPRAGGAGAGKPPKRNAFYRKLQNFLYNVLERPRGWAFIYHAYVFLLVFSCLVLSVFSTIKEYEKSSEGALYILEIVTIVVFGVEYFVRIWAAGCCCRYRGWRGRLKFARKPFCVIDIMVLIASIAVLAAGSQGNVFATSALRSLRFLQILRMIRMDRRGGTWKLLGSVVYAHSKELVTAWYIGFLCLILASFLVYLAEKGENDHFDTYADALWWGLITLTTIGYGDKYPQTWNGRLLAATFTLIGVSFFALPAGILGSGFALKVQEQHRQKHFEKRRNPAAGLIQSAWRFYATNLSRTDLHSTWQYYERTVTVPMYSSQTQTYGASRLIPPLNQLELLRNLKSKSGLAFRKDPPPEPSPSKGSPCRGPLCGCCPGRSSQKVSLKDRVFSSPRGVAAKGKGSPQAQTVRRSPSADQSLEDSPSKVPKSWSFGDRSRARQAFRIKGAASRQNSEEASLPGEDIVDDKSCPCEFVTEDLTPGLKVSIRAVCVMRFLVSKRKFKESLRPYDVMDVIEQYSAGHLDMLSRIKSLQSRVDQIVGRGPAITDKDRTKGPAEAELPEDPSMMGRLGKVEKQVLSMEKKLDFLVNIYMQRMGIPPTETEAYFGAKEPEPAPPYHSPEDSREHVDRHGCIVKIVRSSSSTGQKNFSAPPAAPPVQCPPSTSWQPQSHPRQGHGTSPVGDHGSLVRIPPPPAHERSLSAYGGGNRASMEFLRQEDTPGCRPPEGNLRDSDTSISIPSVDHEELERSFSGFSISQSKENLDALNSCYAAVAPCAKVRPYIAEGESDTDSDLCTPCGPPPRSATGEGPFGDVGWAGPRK

With `C=CCN(Cc1ccc(F)cc1)c1ccc(NC(=O)OCC)c(N)c1F` [Compound 1, ethyl (4-(allyl(4-fluorobenzyl)amino)-2-amino-3-fluorophenyl)carbamate], the EC50 in data set [1] (setting [3]) was in the range of 1 to 5 µM. On the same count and under the same terms, to `C=CCN(Cc1ccc(C(F)(F)F)cc1)c1ccc(NC(=O)OCC)c(N)c1F` [Compound 2, ethyl (4-(allyl(4-(trifluoromethyl)benzyl)amino)-2-amino-3-fluorophenyl)carbamate] belongs 0.1 to 1 µM; to `C=CCN(Cc1cccc(C(F)(F)F)c1)c1ccc(NC(=O)OCC)c(N)c1F` [Compound 3, ethyl (4-(allyl(3-(trifluoromethyl)benzyl)amino)-2-amino-3-fluorophenyl)carbamate], 5 to 25 µM. On to `C=CCN(Cc1ccc(F)cc1)c1ccc(NC(=O)OCC)c(N)c1` [Compound 4, ethyl (4-(allyl(4-fluorobenzyl)amino)-2-aminophenyl)carbamate], for which the “activation of Kv7.2/7.3 channels as measured by the SyncroPatch platform” value (from here on “activation of Kv7.2/7.3 channels”) in data set [1] is “dose-dependent activation”. The EC50 in data set [1] (setting [3]) lay in the range of 0.1 to 1 µM.

With `C=CCN(Cc1cccc(C(F)(F)F)c1)c1ccc(NC(=O)OCC)c(N)c1` [Compound 6, ethyl (4-(allyl(3-(trifluoromethyl)benzyl)amino)-2-aminophenyl)carbamate], the “activation of Kv7.2/7.3 channels” value in data set [1] is “dose-dependent activation”. Also, the EC50 in data set [1] (setting [3]) lay within 0.1 to 1 µM. Take `C#CCN(Cc1ccc(F)cc1)c1ccc(NC(=O)OCC)c(N)c1F` [Compound 7, ethyl (2-amino-3-fluoro-4-((4-fluorobenzyl)(prop-2-yn-1-yl)amino)phenyl)carbamate]: the “activation of Kv7.2/7.3 channels” value in data set [1] was “dose-dependent activation”. In data set [1] (setting [3]), the EC50 lay within 0.1 to 1 µM. In the same order, the values of `C#CCN(Cc1ccc(C(F)(F)F)cc1)c1ccc(NC(=O)OCC)c(N)c1F` [Compound 8, ethyl (2-amino-3-fluoro-4-(prop-2-yn-1-yl(4-(trifluoromethyl)benzyl)amino)phenyl)carbamate] are “dose-dependent activation” and 0.1 to 1 µM.

As for `C#CCN(Cc1cccc(C(F)(F)F)c1)c1ccc(NC(=O)OCC)c(N)c1F` [Compound 9, ethyl (2-amino-3-fluoro-4-(prop-2-yn-1-yl(3-(trifluoromethyl)benzyl)amino)phenyl)carbamate], the EC50 in data set [1] (setting [3]) was in the range of 0.1 to 1 µM. For the compound `C#CCN(Cc1ccc(F)cc1)c1ccc(NC(=O)OCC)c(N)c1` [Compound 10, reference compound], the “activation of Kv7.2/7.3 channels” value in data set [1] was “dose-dependent activation”. In addition, the EC50 in data set [1] (setting [3]) is 1 to 5 µM. Regarding `C#CCN(Cc1ccc(C(F)(F)F)cc1)c1ccc(NC(=O)OCC)c(N)c1` [Compound 11, ethyl (2-amino-4-(prop-2-yn-1-yl(4-(trifluoromethyl)benzyl)amino)phenyl)carbamate], the EC50 in data set [1] (setting [3]) was in the range of 0.1 to 1 µM. For `C#CCN(Cc1cccc(C(F)(F)F)c1)c1ccc(NC(=O)OCC)c(N)c1` [Compound 12, ethyl (2-amino-4-(prop-2-yn-1-yl(3-(trifluoromethyl)benzyl)amino)phenyl)carbamate], the “activation of Kv7.2/7.3 channels” value in data set [1] is recorded as “dose-dependent activation”. Besides, the EC50 in data set [1] (setting [3]) lay in the range of 0.1 to 1 µM.

With `CCOC(=O)Nc1ccc(N2CCc3cc(F)ccc3C2)c(F)c1N` [Compound 17, ethyl (2-amino-3-fluoro-4-(6-fluoro-3,4-dihydroisoquinolin-2(1H)-yl)phenyl)carbamate], in data set [1] (setting [3]), the EC50 is 0.1 to 1 µM. Same read-out and setting: in the case of `CCOC(=O)Nc1ccc(N2CCc3ccc(C(F)(F)F)cc3C2)c(F)c1N` [Compound 18, Ethyl (2-amino-3-fluoro-4-(7-(trifluoromethyl)-3,4-dihydroisoquinolin-2(1H)-yl)phenyl)carbamate] it was 0.1 to 1 µM; in that of `CCOC(=O)Nc1ccc(N2CCc3cc(C(F)(F)F)ccc3C2)c(F)c1N` [Compound 19, ethyl (2-amino-3-fluoro-4-(6-(trifluoromethyl)-3,4-dihydroisoquinolin-2(1H)-yl)phenyl)carbamate], 1 to 5 µM. On to `CCOC(=O)Nc1ccc(N2CCc3ccc(F)cc3C2)c(F)c1N` [Compound 20, ethyl (2-amino-3-fluoro-4-(7-fluoro-3,4-dihydroisoquinolin-2(1H)-yl)phenyl)carbamate], for which the EC50 in data set [1] (setting [3]) lay in the range of 0.1 to 1 µM. Same read-out and setting: in the case of `CCOC(=O)Nc1ccc(N2CCc3cc(F)ccc3C2)cc1N` [Compound 21, ethyl (2-amino-4-(6-fluoro-3,4-dihydroisoquinolin-2(1H)-yl)phenyl)carbamate] it was 1 to 5 µM. Still for that read-out and setting: in the case of `CCOC(=O)Nc1ccc(N2CCc3ccc(C(F)(F)F)cc3C2)cc1N` [Compound 22, ethyl (2-amino-4-(7-(trifluoromethyl)-3,4-dihydroisoquinolin-2(1H)-yl)phenyl)carbamate] it was 0.1 to 1 µM; in that of `CCOC(=O)Nc1ccc(N2CCc3cc(C(F)(F)F)ccc3C2)cc1N` [Compound 23, ethyl (2-amino-4-(6-(trifluoromethyl)-3,4-dihydroisoquinolin-2(1H)-yl)phenyl)carbamate], 1 to 5 µM; in that of `CCOC(=O)Nc1ccc(N2CCc3ccc(F)cc3C2)cc1N` [Compound 24, ethyl (2-amino-4-(7-fluoro-3,4-dihydroisoquinolin-2(1H)-yl)phenyl)carbamate], 1 to 5 µM. For `CCOC(=O)Nc1c(N)cc(NCc2ccc(F)cc2)cc1F` [Compound X, reference compound], in data set [1], the EC50 is 0.1 to 1 µM and the “activation of Kv7.2/7.3 channels” value is “dose-dependent activation”. Consider `CCOC(=O)Nc1ccc(NCc2ccc(F)cc2)cc1N` [Ezogabine, ethyl N-[2-amino-4-[(4-fluorophenyl)methylamino]phenyl]carbamate], for which the half-life in data set [2] was 8 h.
